Results published in patent publication US10717781B2, “Neuroinvasion inhibitor” (National Cancer Center, priority 2008, dated 2020).
Where a name gives a salt, the structure may show the parent alone.

Assays:
[1] = system: human pancreatic cancer cell lines; assay: cell growth activity by monitoring the cell count over time; type: cell-based; conditions: cell count over time (FIGS. 2A and 2B)
Procedure: (§1) Capan-1 and BxPC-3, which are human pancreatic cancer cell lines, were purchased from the American Type Culture Collection (ATCC). According to the manual recommended by ATCC, the cells were cultured and passaged using an incubator capable of maintaining a temperature of 37° C. under 5% CO2.
Cells were harvested from dishes, and viable cells were counted using trypan blue and a hemocytometer.
(§2) Using human recombinant IL-6, the effects of IL-6 on growth activity, chemotactic activity, and migratory activity of the human pancreatic cancer cell lines were assessed by monitoring the cell count over time (FIGS. 2A and 2B), by chemotaxis assay (FIG. 2C), and by wound healing assay (FIG. 2D).

[2] = system: human pancreatic cancer Capan-1 cell line; assay: Western blotting of intracellular signaling (pSTAT3, pErk1/2, pAkt); type: cell-based
Procedure: Western blotting was carried out using the following primary antibodies: anti-phosphorylated STAT3 antibody (Santa Cruz), anti-STAT3 antibody (Santa Cruz), anti-phosphorylated Erk1/2 antibody (Cell Signaling), anti-Erk1/2 antibody (Cell Signaling), anti-phosphorylated Akt antibody (Cell Signaling), anti-Akt antibody (Cell Signaling), and anti-actin antibody (Santa Cruz). Fluorescent immunostaining was carried out using the following primary antibodies: anti-S100 antibody (DAKO) and anti-mouse IL-6 antibody (Santa Cruz). Nuclear staining was performed using DRAQ5 (AXXORA). Immunostaining was performed using an anti-phosphorylated STAT3 antibody (Santa Cruz).
Cell lysates were prepared using a lysate buffer (20 mM Hepes-NaOH (pH 7.0), 0.5% NP-40, 15% Glycerol, 300 mM NaCl, 1 mM EDTA, 10 mM NaF). The protein concentration was determined using a BCA Protein Assay Kit (PIERCE). Then, cell lysates containing […] of protein were electrophoresed in 7.5% or 12% acrylamide gels. The proteins were transferred onto a polyvinylidene difluoride membrane (Millipore). An antibody was added to the membrane, and the protein expression was visualized using Enhanced Chemiluminescence Reagent (Amersham Biosciences).
Using human recombinant IL-6 (rhIL6), the effect of IL-6 on intracellular signaling of the human pancreatic cancer Capan-1 cell line was assessed by Western blotting for phosphorylated STAT3 (pSTAT3) (FIG. 3A), phosphorylated Erk1/2 (pErk1/2) (FIG. 3B), and phosphorylated Akt (pAkt) (FIG. 3C). […] In contrast, IL-6 had no effect on the expression of phosphorylated Akt.

[3] = system: human pancreatic cancer cell lines; assay: wound healing assay (migratory activity); type: cell-based; conditions: hrIL6 0, 1, 10, 100 ng/ml, 24 hours (FIG. 2D)
Procedure: as §1
1 ml of a cell suspension (3×10^5 cells/ml) was added to each of 24 wells, and incubated for 24 hours. Then, the medium was replaced with serum-free medium. After 24 hours of incubation, a strip-shaped cell-free area was produced by scraping the central area of the well with a glass rod. After measuring the width of the strip, the medium was replaced with an hrIL6 vehicle at 0, 1, 10, or 100 ng/ml. After 24 hours of incubation, changes in the width of the cell-free area were determined. This assay was carried out twelve times for each group. The determined values were divided by the average width change at 0 ng/ml hrIL6. The resulting normalized values were recorded.
as §2

[4] = system: human pancreatic cancer cell lines; assay: chemotaxis assay; type: cell-based; conditions: hrIL6 0, 1, 10, 100 ng/ml, 24 hours (FIG. 2C)
Procedure: as §1
Cell culture inserts (BD Falcon) having 8-μm pores in the bottom surface were inserted into 24 wells. The cell culture inserts and wells were used as upper and lower chambers, respectively. Human recombinant IL-6 (hrIL6) vehicles were prepared at 0, 1, 10, and 100 ng/ml using hrIL6 (R&D systems) and serum-free culture medium. 600 μl of the hrIL6 vehicles was added to the lower chambers. 100 μl of a cell suspension (2×10^6 cells/ml) was added to the upper chambers. After 24 hours of incubation, cells that passed through the pores were counted. This assay was carried out twelve times for each group. The cell count was divided by the average number of cells that passed through the pores at 0 ng/ml hrIL6. The resulting normalized values were recorded.
as §2

[5] = system: neural invasion of human pancreatic cancer cells in mouse sciatic nerve; assay: administration of inhibitors to neural invasion model mice; type: in vivo
Procedure: Six-week-old male mice with severe combined immune deficiency (SCID) were used. The mice were anesthetized by administering barbital at 50 mg/kg into their peritoneal cavities. After exposing the left sciatic nerves, 2.5 μl of a suspension of cancer cells (1.0×10^4 cells/μl) was injected directly into the sciatic nerves using a microsyringe and 30-gauge needle. Upon assessment, the sciatic nerves into which cancer cells were injected were isolated. When tissue samples were prepared, the nerves were allowed to stand in 4% paraformaldehyde at 4° C. for one whole day and night to fix them. The fixed sciatic nerves were sliced into 3-μm sections, and then immunostained or hematoxylin/eosin-stained to measure the distance of neural invasion. Using an objective micrometer (Sankei Co.), the longitudinal length of the whole tumor was measured in the longitudinally sliced thin sections of the nerves to determine the distance of neural invasion. Tissue mRNA was extracted from tissue samples prepared by crushing with a Multi-Beads Shocker (Yasui Kikai Co.) immediately after harvesting the tissues.
The distance of neural invasion is an important factor in the mode of invasion of pancreatic cancer. […]
The analysis software used was STATVIEW 5.0. The difference between average values was evaluated by two-sided Student-t test. […]

[6] = system: pancreatic cancer; conditions: pancreatic cancer patients, foreign phase III clinical trial data, cited from earlier work

Molecule: IL-6: Human recombinant IL-6 (R&D systems), cytokine added to pancreatic cancer cell lines
- effect on cell growth [1]: no effect
- expression of phosphorylated Akt ([2]; Capan-1 (FIG. 3C)): no effect
- intracellular expression level of phosphorylated STAT3 protein ([2]; Capan-1, 15 minutes after addition of rhIL6 (FIG. 3A)): clearly elevated
- intracellular expression level of phosphorylated Erk1/2 proteins ([2]; Capan-1, one hour after addition of rhIL6 (FIG. 3B)): clearly elevated
- effect on migratory activity [3]: enhances
- effect on chemotactic activity [4]: enhances

Molecule: N#C/C(=C/c1ccc(O)c(O)c1)C(=O)NCc1ccccc1 [AG490]
- neural invasion (invasion distance) ([5]; 0.5 mg intraperitoneally every day for 12 days from two days after injection of cancer cells, assessed at two weeks, vs 1% DMSO (FIG. 9A)): suppression of neural invasion

Molecule: Nc1ccn([C@@H]2O[C@H](CO)[C@@H](O)C2(F)F)c(=O)n1 [gemcitabine hydrochloride]
- efficacy rate of palliative effects ([6]; first drug of choice): 23.8%
- median survival time [6]: 5.7 months
- one-year survival rate [6]: 18%

Molecule: anti-human IL-6 receptor antibody: anti-IL-6 receptor antibody (tocilizumab; Chugai Pharmaceutical Co.), which inhibits the human IL-6 receptor; humanized PM-1 antibody
- neural invasion (invasion distance) ([5]; 5 μg/g twice a week for two weeks from one week after injection of cancer cells, assessed at three weeks, vs human IgG (FIG. 9B)): suppression of neural invasion
